# Values quoted from earlier work in US20180273780A1, “WATER-BASED INK COMPOSITION FOR INK JET RECORDING AND COLORING MATERIAL LIQUID” (Seiko Epson Corporation, priority 2017, published 2018).
row,water-octanol partition coefficient (log P),Molecule
1,0.56,CCCCOCCOCCO [butyl diglycol]
2,2.4,CCCCC(CC)COCCOCCO (stereo not drawn) [diethylene glycol-2-ethylhexyl ether]
3,0.97,tritrimethylolpropane

# Second part, the molecule before the results:
row,Molecule,water-octanol partition coefficient (log P)
1,CCCN1CCCC1=O [1-propyl-2-pyrrolidone],0.67
2,"CCCCCCOCC(O)CO (stereo not drawn) [3-(hexyloxy)-1,2-propanediol]",1.36
3,"CCCCOCCC(=O)N(C)C [3-butoxy-N,N-dimethylpropanamide]",0.86
